7 molecules from patent US5627271A, “Glycolipids, their preparation and use” (Genzyme Limited, priority 1992, dated 1997) can be followed below.

“And” between values parts separate entries of the source, which are not always exact repeats. Equal values may be shown once.

For one experiment, the target named is T1, α2-3 sialyltransferase (Sus scrofa, UniProt Q02745).
T1 construct: from porcine liver; from tissue; host or cells: porcine liver
T1 sequence (Q02745 1-343): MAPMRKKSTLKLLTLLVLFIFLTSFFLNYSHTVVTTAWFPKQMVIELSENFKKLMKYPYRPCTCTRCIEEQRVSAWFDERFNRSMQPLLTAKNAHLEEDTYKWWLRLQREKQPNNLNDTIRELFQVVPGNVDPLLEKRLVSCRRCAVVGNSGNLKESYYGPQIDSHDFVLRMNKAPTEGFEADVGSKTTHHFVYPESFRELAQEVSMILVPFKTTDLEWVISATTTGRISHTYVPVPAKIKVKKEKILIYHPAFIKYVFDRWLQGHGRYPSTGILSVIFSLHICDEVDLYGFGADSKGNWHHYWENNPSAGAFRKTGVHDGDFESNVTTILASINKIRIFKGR
As to the kind of experiment: Incorporation of radio-labelled CMP-NANA into glycolipid acceptors by α2-3 sialyltransferase. The format is biochemical, porcine. On the procedure:
(§1) Various glycolipids have been incubated with α2-3 and α2-6 sialyltransferases (from porcine and rat liver) in the presence of radio-labelled CMP-NANA. […] Other glycolipids could accept NANA, but in relatively low yields.
However, this transferase should be able to use glycolipid (54) as an acceptor.

Another experiment deals with T2, α2-6 sialyltransferase (Rattus norvegicus, UniProt P13721).
T2 construct: (from porcine and rat liver); from tissue; host or cells: rat liver
T2 sequence (P13721 1-403): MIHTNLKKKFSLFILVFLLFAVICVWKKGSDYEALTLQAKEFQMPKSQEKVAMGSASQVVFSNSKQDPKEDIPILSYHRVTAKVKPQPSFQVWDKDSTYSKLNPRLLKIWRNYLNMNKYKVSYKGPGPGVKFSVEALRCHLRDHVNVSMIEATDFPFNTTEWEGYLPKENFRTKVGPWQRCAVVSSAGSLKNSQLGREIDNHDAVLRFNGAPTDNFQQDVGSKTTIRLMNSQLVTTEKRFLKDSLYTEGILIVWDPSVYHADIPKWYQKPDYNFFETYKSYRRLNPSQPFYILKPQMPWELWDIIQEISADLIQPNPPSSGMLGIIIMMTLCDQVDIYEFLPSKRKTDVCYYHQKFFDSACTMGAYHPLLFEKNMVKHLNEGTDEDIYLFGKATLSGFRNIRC
As to the kind of experiment: Incorporation of radio-labelled CMP-NANA into glycolipid acceptors by α2-6 sialyltransferase. Type of experiment: biochemical. On the procedure:
as §1

The next experiment concerns galactosyltransferase. As to the kind of experiment: Test as substrate for galactosyltransferase. As to conditions: with and without the detergent Triton CF-54. The format is biochemical, bovine. On the procedure:
Compound (28): The acceptor (27) (16.5 mg, 31.2 μmol) was sonicated carefully for 15 min in 39 μl of 40 mM MnCl2, 93 μl of 50 mM NaN3, 102 μl and 330 μl of sodium cacodylate buffer pH 7.4 100 mM and 50 mM respectively. Then 35 μl of 2% BSA, 5.5 μl (5.5 U) of 1 U/μl calf intestinal alkaline phosphatase, 143 μl (1.92 U) of 6.7 U/500 μl UDP-Glc 4--epimerase, 29 μl (487 mU) of 8.4 U/500 μl galactosyl-transferase and 21.9 mg (37.9 μmol, 1.2 eq.) of UDP-Glc were added. The final concentrations were as follows: [Acceptor]=40 mM, [UDP-Glc]=49 mM, [MnCl2 ]=2 mM, [NAN3 ]=6 mM, [Sodium cacodylate]=50 mM.
The GlcNAc ceramide (40) has been tested as a substrate for the galactosyltransferase with and without the addition of the detergent Triton CF-54. No conversion was obtained.

In experiment [1] the target is T3, α1-3 fucosyl transferase VI (Homo sapiens, UniProt P51993).
T3 sequence (P51993 1-359): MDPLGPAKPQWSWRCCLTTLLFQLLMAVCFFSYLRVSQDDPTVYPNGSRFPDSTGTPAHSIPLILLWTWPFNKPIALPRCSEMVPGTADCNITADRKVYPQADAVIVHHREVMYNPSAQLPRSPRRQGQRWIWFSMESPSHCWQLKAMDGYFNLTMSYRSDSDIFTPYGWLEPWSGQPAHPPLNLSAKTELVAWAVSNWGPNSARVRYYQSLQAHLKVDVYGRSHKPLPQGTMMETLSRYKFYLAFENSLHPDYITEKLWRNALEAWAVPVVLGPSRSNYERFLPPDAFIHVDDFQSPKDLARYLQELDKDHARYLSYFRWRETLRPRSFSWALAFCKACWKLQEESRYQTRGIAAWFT
The experiment is described as follows: Test as substrate for α1-3 fucosyl transferase VI with radio-labelled GDP-[14C]fucose. Conditions: for Competition for incorporation of fucose into lipid (acceptor quality): 0.2 mM (28) with 0 to 2 mM N-acetyllactosamine; for Percentage of fucose transferred: 0.5 mU fucosyl transferase, 1 hour. Type of experiment: biochemical. As to the method: The acceptor (28) was tested as a substrate for α1-3 fucosyl transferase VI, by incubation with the enzyme and radio-labelled GDP-[^14 C]fucose. The reaction conditions were: 45 mM Mes pH 6.5; 27 μM GDP-Fuc; 0.1% BSA; 0.1 mM NaCl; 5 mM MnCl2; 5 mM MgCl2; incubation at 37° C.). The reaction mixture was passed through a Sep-Pak C18 cartridge which was washed with 0.2M NaCl to ensure separation of all hydrophilic material. The lipid fraction was then eluted with MeOH. The incorporation of radioactivity into lipids was measured by scintillation counting.
In a first experiment, the transfer was monitored with time, using 0.2 mM (28) and 0.1 mU fucosyltransferase/100 μl incubation, and compared to a control incubation containing no acceptor. […] In a further experiment, but using 0.5 mU fucosyl transferase over 1 hour, the transfer of fucose was measured at 0.2, 1, 5 and 24 mM concentrations of (28). The percentage of fucose transferred was respectively about 50%, 60%, 65% and 70%.
Competition experiments were also carried out, using 0.2 mM acceptor (28), in the presence of various concentrations (0 to 2 mM) of N-acetyllactosamine which is a known substrate for the enzyme. The samples were analysed as before, for incorporation of fucose into lipid.

Where [2] appears, read: acceptor conc. 12 mM, bracketed numbers are background.

As to `CCCCCCCCCCCCC/C=C/[C@@H](O)[C@@H](N)CO[C@@H]1O[C@H](CO)[C@@H](O[C@@H]2O[C@H](CO)[C@H](O)[C@H](O)[C@H]2O)[C@H](O)[C@H]1O` [(1)], the “α2-3ST yield (%) of incorporation of radio-labelled CMP-NANA” value (from here on “α2-3ST yield (%)”) at α2-3 sialyltransferase (acceptor conc. 12 mM) is 1.5%; at α2-3 sialyltransferase (acceptor conc. 100 mM), 2.4% and 2.5%.
Turning to `CCCCCCCCCCCCC/C=C/[C@@H](O)[C@H](CO[C@@H]1O[C@H](CO)[C@@H](O[C@@H]2O[C@H](CO)[C@H](O)[C@H](O)[C@H]2O)[C@H](O)[C@H]1O)N=[N+]=[N-]` [(20)], the “α2-6 ST yield (%) of incorporation of radio-labelled CMP-NANA” value (“α2-6 ST yield (%)” for short) at α2-6 sialyltransferase (setting [2]) is 2.9% and 2.8%. For the same molecule, on α2-3 sialyltransferase (acceptor conc. 100 mM), the “α2-3ST yield (%)” value is given as 2.5%.
As for `CCCCCCCCCCCCC/C=C/[C@@H](O)[C@H](CO[C@@H]1O[C@H](CO)[C@@H](O)[C@H](O)[C@H]1NC(C)=O)N=[N+]=[N-]` [(27)], the “Conversion (galactosylation) by galactosyltransferase” value in the experiment with galactosyltransferase is “galactosylated”.
As for `CCCCCCCCCCCCC/C=C/[C@@H](O)[C@H](CO[C@@H]1O[C@H](CO)[C@@H](O[C@@H]2O[C@H](CO)[C@H](O)[C@H](O)[C@H]2O)[C@H](O)[C@H]1NC(C)=O)N=[N+]=[N-]` [(28)], the “α2-6 ST yield (%)” value stood at 22.2% at α2-6 sialyltransferase (acceptor conc. 6 mM, bracketed numbers are background); 23.2% at α2-6 sialyltransferase (setting [2]); 47.0% on α2-6 sialyltransferase (acceptor conc. 50 mM, bracketed numbers are background); 59.8% on α2-6 sialyltransferase (acceptor conc. 100 mM, bracketed numbers are background). In addition, the “α2-3ST yield (%)” value on α2-3 sialyltransferase (acceptor conc. 6 mM) was 1.1%; at α2-3 sialyltransferase (acceptor conc. 100 mM), 1.5% and 1.2%. In addition, the “Competition for incorporation of fucose into lipid (acceptor quality)” value in experiment [1] is recorded as “similarly good acceptors”. The “Incorporation of label into lipid monitored with time” value in experiment [1] (0.2 mM acceptor, 0.1 mU fucosyltransferase/100 μl, vs control without acceptor) is reported as “incorporation of label into lipid above background”. Also, the “Percentage of fucose transferred” value is given as “about 50%” in experiment [1] (0.2 mM acceptor), about 60% in experiment [1] (1 mM acceptor), about 65% in experiment [1] (5 mM acceptor) and about 70% in experiment [1] (24 mM acceptor).
As for `CCCCCCCCCCCCC/C=C/[C@@H](O)[C@H](CO[C@@H]1O[C@H](CO)[C@@H](O)[C@H](O)[C@H]1NC(C)=O)NC(=O)CCCCCCCCCCCCCCCCCCCCCCC` [(40), GlcNAc ceramide], the “Conversion (galactosylation) by galactosyltransferase” value in the experiment with galactosyltransferase is “No conversion”.
With `CC(=O)N[C@H]1C(O)O[C@H](CO)[C@@H](O[C@@H]2O[C@H](CO)[C@H](O)[C@H](O)[C@H]2O)[C@@H]1O` (stereo partly drawn) [N-acetyllactosamine, reference compound], the “Competition for incorporation of fucose into lipid (acceptor quality)” value in experiment [1] is “similarly good acceptors”.
In the case of `CCCCCCCCCCCCC/C=C/[C@@H](O)[C@H](CO[C@@H]1O[C@H](CO)[C@@H](O[C@@H]2O[C@H](CO)[C@H](O)[C@H](O)[C@H]2O)[C@H](O)[C@H]1O)NC(=O)CCCCCCCCCCCCCCCCC` [lactosyl-ceramide, Lactosylceramide, reference compound], the “α2-6 ST yield (%)” value on α2-6 sialyltransferase (acceptor conc. 43 mM) amounted to 2.7%. Also, the “Transfer by α2-3 sialyltransferase / acceptor substrate (in words)” value on α2-3 sialyltransferase (α2-3 sialyltransferase from porcine liver) is listed as “not an acceptor substrate”.
